What is called IC50 is the concentration that gives 50% inhibition.

One data set has as its target p38 MAPKα (Homo sapiens (Human), UniProt Q16539). Description: p38 MAPKα enzyme inhibition (FRET, Z-LYTE). It counts as biochemical.
In the next data set the target is Syk (Homo sapiens (Human), UniProt P43405). The experiment in a line: Syk enzyme inhibition (FRET, Z-LYTE). It counts as biochemical. The method in brief:
(§1)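 Z-LYTE FRET kinase assay: enzyme (3000 or 2000 ng/mL stock, respectively) preincubated 2 h at RT with compound (4–0.004 μg/mL stocks), then FRET peptide plus ATP (800 μM stock for c-Src, 60 μM for Syk) added for 1 h. Protease development 1 h; phosphorylation from coumarin/fluorescein emission ratio.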

The target of another data set is GSK3α (Homo sapiens (Human), UniProt P49840). Description: GSK 3α enzyme inhibition (FRET, Z-LYTE). It counts as biochemical. The method in brief:
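GSK3α (500 ng/mL stock) was preincubated 2 hr at RT with compound (4 to 0.004 μg/mL stocks), then FRET peptide (8 μM stock) and ATP (40 μM stock) added for 1 hr. Protease development for 1 hr cleaved unphosphorylated peptide; coumarin/fluorescein emission ratio reported phosphorylation.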

The test system of data set [1] is LPS-induced IL-8 release in d-U937 cells. The experiment in a line: LPS-induced IL-8 release in d-U937 cells. It is filed as cell-based. Conditions: Homo sapiens, dU937, read-out: LPS Induced Release of Cytokine in d-937 Cells IL-8 IC50. The method in brief: (§2)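 First, U937 monocytes undergo PMA treatment (100 ng/mL) for 48 to 72 hr to become macrophage-type. Next, compound at final concentrations is added for 2 hr, followed by LPS at 0.1 μg/mL for 4 hr. Finally, cytokines in the supernatant are quantified by ELISA against vehicle-treated cells.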

Data set [2] relates to LPS-induced TNFα release in d-U937 cells. The experiment in a line: LPS-induced TNFα release in d-U937 cells. It counts as cell-based. Conditions: Homo sapiens, dU937, relative to 10 μg/mL BIRB796, read-out: LPS Induced Release of Cytokine in d-937 Cells TNFα REC50. The essentials:
as §2

Data set [3] has as its system Poly I:C-induced ICAM-1 expression in BEAS2B cells. Description: Poly I:C-induced ICAM-1 expression in BEAS2B cells. It counts as cell-based. Conditions: Homo sapiens, BEAS-2B, read-out: Poly IC induced ICAM1 in BEAS2B IC50. The method in brief:
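BEAS2B human bronchial epithelial cells pre-incubated with compound for 2 hr, then transfected with 1 μg/mL poly I:C plus Oligofectamine. At 18 hr, surface ICAM-1 measured by cell-based ELISA (HRP, OD450–655). Signal corrected for cell number by crystal violet OD595.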

For another data set, the system named is d-U937 cells. The experiment in a line: Cell viability: MTT assay. It counts as cell-based, human. Particulars: 1 μg/mL. The essentials: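 Differentiated U937 cells were exposed to compound at 1 or 10 μg/mL either 4 h in 5% FCS RPMI1640 or 24 h in 10% FCS RPMI1640, then given MTT for 1 h, DMSO-solubilised and read at 550 nm. Percent viability loss versus 0.5% DMSO vehicle; apparent gains appear negative.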
For orientation: Formazan colour is commonly taken as a measure of viable cells.

A further data set has as its target cSrc (Homo sapiens (Human), UniProt P12931). The experiment in a line: c-Src enzyme inhibition (FRET, Z-LYTE). It is filed as biochemical. The essentials:
as §1

Sequence of GSK3α (P49840 whole entry): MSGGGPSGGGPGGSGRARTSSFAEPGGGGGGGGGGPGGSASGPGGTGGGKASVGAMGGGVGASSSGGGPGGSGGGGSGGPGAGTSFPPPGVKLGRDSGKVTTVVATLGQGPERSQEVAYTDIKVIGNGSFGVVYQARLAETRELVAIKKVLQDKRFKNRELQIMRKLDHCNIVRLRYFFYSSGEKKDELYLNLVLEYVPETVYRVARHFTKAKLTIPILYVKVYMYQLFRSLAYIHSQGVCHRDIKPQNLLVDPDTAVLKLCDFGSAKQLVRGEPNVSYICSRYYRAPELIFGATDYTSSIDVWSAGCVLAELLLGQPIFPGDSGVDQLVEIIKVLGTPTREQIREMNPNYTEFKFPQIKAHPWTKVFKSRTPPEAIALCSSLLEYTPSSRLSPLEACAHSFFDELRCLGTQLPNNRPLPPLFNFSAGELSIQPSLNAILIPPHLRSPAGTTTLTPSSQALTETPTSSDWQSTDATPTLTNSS
Sequence of p38 MAPKα (Q16539 whole entry): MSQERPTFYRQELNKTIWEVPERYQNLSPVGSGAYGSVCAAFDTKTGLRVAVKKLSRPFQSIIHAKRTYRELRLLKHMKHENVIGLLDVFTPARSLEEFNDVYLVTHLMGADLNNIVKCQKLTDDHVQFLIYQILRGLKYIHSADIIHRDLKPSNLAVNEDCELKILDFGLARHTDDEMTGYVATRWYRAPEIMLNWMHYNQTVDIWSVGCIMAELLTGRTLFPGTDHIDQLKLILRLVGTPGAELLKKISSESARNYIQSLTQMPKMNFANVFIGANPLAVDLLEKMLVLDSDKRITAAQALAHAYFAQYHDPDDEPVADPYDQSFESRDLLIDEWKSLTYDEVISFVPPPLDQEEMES
Sequence of cSrc (P12931 whole entry, looked up): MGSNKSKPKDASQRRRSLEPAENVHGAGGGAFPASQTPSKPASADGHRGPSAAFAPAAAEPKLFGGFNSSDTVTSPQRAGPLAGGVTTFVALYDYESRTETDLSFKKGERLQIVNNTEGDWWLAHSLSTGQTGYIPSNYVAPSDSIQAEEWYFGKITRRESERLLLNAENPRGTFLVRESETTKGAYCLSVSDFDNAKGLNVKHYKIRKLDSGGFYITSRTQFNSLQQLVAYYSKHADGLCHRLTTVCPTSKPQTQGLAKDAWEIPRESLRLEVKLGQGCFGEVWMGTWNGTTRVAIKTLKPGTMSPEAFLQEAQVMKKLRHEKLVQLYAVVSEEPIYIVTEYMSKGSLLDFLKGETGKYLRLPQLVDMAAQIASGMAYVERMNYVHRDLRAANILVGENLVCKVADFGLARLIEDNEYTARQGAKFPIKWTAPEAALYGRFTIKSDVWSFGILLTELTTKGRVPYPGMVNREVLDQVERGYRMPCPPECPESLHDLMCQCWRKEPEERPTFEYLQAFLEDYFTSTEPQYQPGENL

`COc1ccc(-n2nc(C(C)(C)C)cc2NC(=O)Nc2ccc(Oc3ccnc(Nc4ccc5c(cnn5C)c4)n3)c3ccccc23)cc1` [Example 41, 1-(3-(tert-butyl)-1-(4-methoxyphenyl)-1H-pyrazol-5-yl)-3-(4-((2-((1-methyl-1H-indazol-5-yl)amino)pyrimidin-4-yl)oxy)naphthalen-1-yl)urea]: the IC50 against p38 MAPKα is 128 nM; at Syk, 81 nM; on GSK3α it was above 15300 nM; in data set [1] it was 123 nM; in data set [3] it was 1.9 nM; against cSrc it was 16 nM. Further, the EC50 in data set [2] stood at 1.6 nM. Further, the “MTT Assay Cell viability at time point in d-U937 cells 4 h” value with d-U937 cells was “+ve (−ve and +ve indicate that the value is below and above respectively, the no significant effect threshold, defined as 30% inhibition at 1 μg/mL at the time point indicated.)”. The “MTT Assay Cell viability at time point in d-U937 cells 24 h” value with d-U937 cells is “−ve (−ve and +ve indicate that the value is below and above respectively, the no significant effect threshold, defined as 30% inhibition at 1 μg/mL at the time point indicated.)”.
Take `COc1ccc(-n2nc(C(C)C)cc2NC(=O)Nc2ccc(Oc3ccnc(Nc4ccc5[nH]nc(C(=O)N(C)C)c5c4)n3)c3ccccc23)cc1` [Example 46, 5-((4-((4-(3-(3-isopropyl-1-(4-methoxyphenyl)-1H-pyrazol-5-yl)ureido)naphthalen-1-yl)oxy)pyrimidin-2-yl)amino)-N,N-dimethyl-1H-indazole-3-carboxamide]: the IC50 against p38 MAPKα is 12 nM; on Syk, 2 nM; on GSK3α, 908 nM; in data set [1] it was 21.1 nM; in data set [3], 2.3 nM; at cSrc it was below 1 nM. Moreover, the EC50 in data set [2] came to 1.8 nM. The “MTT Assay Cell viability at time point in d-U937 cells 4 h” value in the data set with d-U937 cells was “−ve (−ve and +ve indicate that the value is below and above respectively, the no significant effect threshold, defined as 30% inhibition at 1 μg/mL at the time point indicated.)”. In addition, the “MTT Assay Cell viability at time point in d-U937 cells 24 h” value with d-U937 cells was “−ve (−ve and +ve indicate that the value is below and above respectively, the no significant effect threshold, defined as 30% inhibition at 1 μg/mL at the time point indicated.)”.
With `Cc1ccc(-n2nc(C(C)(C)C)cc2NC(=O)Nc2ccc(Oc3ccnc(Nc4ccc5c(c4)CC(=O)N5C)n3)c3ccccc23)cc1` [Example 20, 1-(3-(tert-butyl)-1-(p-tolyl)-1H-pyrazol-5-yl)-3-(4-((2-((1-methyl-2-oxoindolin-5-yl)amino)pyrimidin-4-yl)oxy)naphthalen-1-yl)urea], the IC50 at p38 MAPKα is 61 nM; at Syk, 6 nM; against GSK3α it was 900 nM; in data set [1], 2.2 nM; in data set [3] it was 6.3 nM; at cSrc it was 113 nM. The EC50 in data set [2] was 1.7 nM. The “MTT Assay Cell viability at time point in d-U937 cells 4 h” value with d-U937 cells was “−ve (−ve and +ve indicate that the value is below and above respectively, the no significant effect threshold, defined as 30% inhibition at 1 μg/mL at the time point indicated.)”. In addition, the “MTT Assay Cell viability at time point in d-U937 cells 24 h” value in the data set with d-U937 cells was “−ve (−ve and +ve indicate that the value is below and above respectively, the no significant effect threshold, defined as 30% inhibition at 1 μg/mL at the time point indicated.)”.
As for `COc1ccc(-n2nc(C(C)(C)C)cc2NC(=O)Nc2ccc(Oc3ccnc(Nc4ccc5c(cnn5CCN5CCOCC5)c4)n3)c3ccccc23)cc1` [Example 43, 1-(3-(tert-butyl)-1-(4-methoxyphenyl)-1H-pyrazol-5-yl)-3-(4-((2-((1-(2-morpholinoethyl)-1H-indazol-5-yl)amino)pyrimidin-4-yl)oxy)naphthalen-1-yl)urea], the IC50 amounted to 15 nM against p38 MAPKα; 21 nM at Syk; 485 nM on GSK3α; 1.8 nM in data set [1]; 2.4 nM in data set [3]; 2 nM at cSrc. Further, the EC50 in data set [2] turned out to be 1.3 nM. Besides, the “MTT Assay Cell viability at time point in d-U937 cells 4 h” value with d-U937 cells is “−ve (−ve and +ve indicate that the value is below and above respectively, the no significant effect threshold, defined as 30% inhibition at 1 μg/mL at the time point indicated.)”. Also, in the data set with d-U937 cells, the “MTT Assay Cell viability at time point in d-U937 cells 24 h” value was “−ve (−ve and +ve indicate that the value is below and above respectively, the no significant effect threshold, defined as 30% inhibition at 1 μg/mL at the time point indicated.)”.
Turning to `CC(C)c1cc(NC(=O)Nc2ccc(Oc3ccnc(Nc4ccc5[nH]ncc5c4)n3)c3ccccc23)n(-c2ccc(OCCN3CCOCC3)cc2)n1` [Example 69, 1-(4-((2-((1H-indazol-5-yl)amino)pyrimidin-4-yl)oxy)naphthalen-1-yl)-3-(3-isopropyl-1-(4-(2-morpholinoethoxy)phenyl)-1H-pyrazol-5-yl)urea], the IC50 against p38 MAPKα worked out at 18 nM; against Syk, 5 nM; against GSK3α, 1280 nM; in data set [1] it was 3.4 nM; in data set [3], 8.1 nM; at cSrc, 3 nM. For the same compound, in data set [2], the EC50 came to 0.4 nM. In addition, the “MTT Assay Cell viability at time point in d-U937 cells 4 h” value in the data set on d-U937 cells was “−ve (−ve and +ve indicate that the value is below and above respectively, the no significant effect threshold, defined as 30% inhibition at 1 μg/mL at the time point indicated.)”. In addition, the “MTT Assay Cell viability at time point in d-U937 cells 24 h” value with d-U937 cells was “−ve (−ve and +ve indicate that the value is below and above respectively, the no significant effect threshold, defined as 30% inhibition at 1 μg/mL at the time point indicated.)”.
For `CC(C)(C)c1cc(NC(=O)Nc2ccc(Oc3ccnc(Nc4ccc5[nH]ncc5c4)n3)c3ccccc23)n(-c2ccc(O)cc2)n1` [Example 7, 1-(4-((2-((1H-Indazol-5-yl)amino)pyrimidin-4-yl)oxy)naphthalen-1-yl)-3-(3-(tert-butyl)-1-(4-hydroxyphenyl)-1H-pyrazol-5-yl)urea], the IC50 at p38 MAPKα is 80 nM; against Syk, 24 nM; on GSK3α, above 1600 nM; in data set [1], 17.2 nM; in data set [3] it was 16.1 nM; against cSrc, 10 nM. The EC50 in data set [2] is 6.2 nM. Also, in the data set on d-U937 cells, the “MTT Assay Cell viability at time point in d-U937 cells 4 h” value is “−ve (−ve and +ve indicate that the value is below and above respectively, the no significant effect threshold, defined as 30% inhibition at 1 μg/mL at the time point indicated.)”. In the data set on d-U937 cells, the “MTT Assay Cell viability at time point in d-U937 cells 24 h” value was “−ve (−ve and +ve indicate that the value is below and above respectively, the no significant effect threshold, defined as 30% inhibition at 1 μg/mL at the time point indicated.)”.
Regarding `CC(C)(C)c1cc(NC(=O)Nc2ccc(Oc3ccnc(Nc4ccc5[nH]ncc5c4)n3)c3ccccc23)n(-c2ccc(=O)n(CCO)c2)n1` [Example 86, 1-(4-((2-((1H-indazol-5-yl)amino)pyrimidin-4-yl)oxy)naphthalen-1-yl)-3-(3-(tert-butyl)-1-(1-(2-hydroxyethyl)-6-oxo-1,6-dihydropyridin-3-yl)-1H-pyrazol-5-yl)urea], the IC50 at p38 MAPKα is 7 nM; on Syk, 16 nM; against GSK3α it was 827 nM; in data set [1], 4.1 nM; in data set [3], 8.3 nM; against cSrc it was below 1 nM. Moreover, the EC50 in data set [2] worked out at 2.2 nM. In addition, in the data set with d-U937 cells, the “MTT Assay Cell viability at time point in d-U937 cells 4 h” value was “−ve (−ve and +ve indicate that the value is below and above respectively, the no significant effect threshold, defined as 30% inhibition at 1 μg/mL at the time point indicated.)”. Moreover, in the data set with d-U937 cells, the “MTT Assay Cell viability at time point in d-U937 cells 24 h” value was “−ve (−ve and +ve indicate that the value is below and above respectively, the no significant effect threshold, defined as 30% inhibition at 1 μg/mL at the time point indicated.)”.

For the origin of these results see patent US9249125B2, “Pyrazole derivatives as p38 MAP inhibitors” (RESPIVERT LIMITED, priority 2012, dated 2016).
